# Molecular target: T1, Human Kv3.4 channels (Homo sapiens, UniProt Q03721)
# T1 construct: expressed in transfected cells
# T1 sequence (Q03721 1-635): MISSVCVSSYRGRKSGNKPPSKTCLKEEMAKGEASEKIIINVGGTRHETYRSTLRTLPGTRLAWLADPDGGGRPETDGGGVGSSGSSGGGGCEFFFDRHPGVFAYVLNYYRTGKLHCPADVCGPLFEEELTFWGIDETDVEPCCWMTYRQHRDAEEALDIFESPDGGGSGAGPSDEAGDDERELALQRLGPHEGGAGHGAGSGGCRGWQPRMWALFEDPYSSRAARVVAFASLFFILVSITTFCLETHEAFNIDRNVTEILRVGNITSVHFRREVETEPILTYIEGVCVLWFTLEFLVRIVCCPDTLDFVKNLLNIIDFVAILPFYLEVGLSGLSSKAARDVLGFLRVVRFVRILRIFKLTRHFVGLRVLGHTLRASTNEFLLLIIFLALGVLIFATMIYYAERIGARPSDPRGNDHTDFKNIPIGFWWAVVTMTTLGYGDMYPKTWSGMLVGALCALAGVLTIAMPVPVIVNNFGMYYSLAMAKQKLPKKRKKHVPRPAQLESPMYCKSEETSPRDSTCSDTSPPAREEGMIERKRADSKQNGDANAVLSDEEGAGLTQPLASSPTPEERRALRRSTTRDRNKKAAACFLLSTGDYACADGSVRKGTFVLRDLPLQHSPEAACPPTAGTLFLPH
# Assay: Kv3.4 Assay 2 (QPatch, HEK293)
# Format: cell-based
# Parameters: dose or concentration left out as unconfirmed
# Conditions: for reduction in peak Kv3.4 current: peak currents did not recover to baseline on washout
# Procedure: Human Kv3.4 channels were stably expressed in a HEK293 cell line. Cells were used within 1-4 hours of cell preparation and internal and external physiological solutions were freshly prepared prior to the assay. Electrophysiological recordings were made using an automated patch clamp platform (QPatch, Sophion Biosciences). The extracellular solution contained 145 mM NaCl, 4 mM KCl, 2 mM CaCl2, 1 mM MgCl2, 10 mM HEPES and 10 mM glucose; the pH was adjusted to 7.4 with NaOH, and the osmolarity measured as 313 mOsm/L. A low potassium intracellular solution was used which contained 135.6 mM CsCl, 5.37 mM CaCl2, 1.75 mM MgCl2, 10 mM EGTA, 15.6 mM KOH, 4 mM Na2ATP and 10 mM HEPES; the pH was adjusted to 7.2 with CsOH, and the osmolarity measured as 303 mOsm/L.
# The voltage dependence of inactivation of the homomeric hKv3.4 channels was tested using a protocol that consisted of a series of two square voltage pulses. The pulse one (P1=pre-pulse) was 1000 ms long and was immediately followed by a second pulse (P2=test pulse) which was 500 ms long. Pulse one varied between the holding potential of −60 mV to +40 mV and pulse two stepped from a holding potential of −60 to +40 mV before returning to the holding potential of −60 mV.
# Steady-state voltage-activation and -inactivation curves were fitted with single Boltzmann function in which G/Gmax was obtained from normalized current amplitude and the V50 represent the half-activation or inactivation voltage.
# The time constants of the inactivation phase of the hKv3.4 currents were derived from a mono (τ) or a double (τ1 and τ2) standard exponential fit to peak trace pulse from −80 mV to +60 mV.
# The time-course of effect of the compounds against the hKv3.4 potassium channel was measured with repetitive voltage pulses from a holding potential of −60 mV, with pulses of 500 ms duration every 5 s to +40 mV.
# One concentration (10 uM) of the test compounds was assessed during the activation, inactivation and peak pulse protocols. The protocol was applied with addition of physiological solution (control period), followed by 10 uM of the testing compound and a 10 mM of the standard blocker TEA.
# Data were normalized using the baseline current control values as top of the curve (maximum current; 1.0) and the zero potassium current as the bottom of the curve (minimum current; 0.0).
# Series resistance and quality of seals were monitored during the experiments. Analysis was performed using the Sophion QPatch Assay Software (version 5.2).
# Stock solutions (10 mM) of the standard blockers TEA was prepared in fresh physiological solution prior to testing on the e-phys automated platform. The test compounds were prepared in 10 mM DMSO stock and then diluted 1 in 1000 in physiological solution.
SMILES,potentiation of the observed Kv3.4 current,shift in the voltage-dependence of activation of the Kv3.4 currents,reduction in peak Kv3.4 current
"CC[C@@]1(C)NC(=O)N(c2cnc(Oc3ccc(C)c(OC(F)(F)F)c3)nc2)C1=O [Compound 2, (5R)-5-ethyl-5-methyl-3-[2-({4-methyl-3-[(trifluoromethyl)oxy]phenyl}oxy)-5-pyrimidinyl]-2,4-imidazolidinedione]",did not potentiate,did not produce any notable shift,45.4±4%
"CC[C@H]1NC(=O)N(c2ccc(Oc3ccc(C)c4c3C3(CC3)CO4)nc2)C1=O [Compound 4, (5R)-5-ethyl-3-[6-(7-methylspiro[2H-benzofuran-3,1′-cyclopropane]-4-yl)oxy-3-pyridyl]imidazolidine-2,4-dione]",did not potentiate,did not produce any notable shift,50.0±4%
"Cc1ccc(Oc2ccc(-n3c(C)n[nH]c3=O)cn2)c2c1OCC21CC1 [Compound 3, 5-methyl-4-{6-[(7-methylspiro[1-benzofuran-3,1′-cyclopropan]-4-yl)oxy]pyridin-3-yl}-2,4-dihydro-3H-1,2,4-triazol-3-one]",did not potentiate,did not produce any notable shift,36±3%
"Cc1ccc(Oc2ncc(N3C(=O)NC(C)(C)C3=O)cn2)c2c1OCC21CC1 [Compound 1, 5,5-dimethyl-3-[2-(7-methylspiro[2H-benzofuran-3,1′-cyclopropane]-4-yl)oxypyrimidin-5-yl]imidazolidine-2,4-dione]",did not potentiate,did not produce any notable shift,40±5%
